Experimental data published in ChEMBL document CHEMBL1156072, “Twenty-six years of anti-HIV drug discovery: where do we stand and where do we go?” (J Med Chem, 2010).

Assays:
[1] = Oral bioavailability in dog; type: ADME, organism-based, Canis lupus familiaris; conditions: in vivo
[2] = Oral bioavailability in rat; type: ADME, organism-based; conditions: in vivo

- bioavailability [1]: 30%
- bioavailability [2]: 34%
Compound: COc1cc2c(cc1Cc1cccc(Cl)c1F)c(=O)c(C(=O)O)cn2[C@H](CO)C(C)C [ELVITEGRAVIR]
